Experiments:
Format in all cases: in vivo
[1] = tested on: Cotton Aphid (Aphis gossypii); experiment: Cotton aphid foliar spray assay on squash; conditions: 72 h, read-out: % Control of cotton aphid on squash (foliar spray)
Method: Squash with fully expanded cotyledon leaves were trimmed to one cotyledon per plant and infested with cotton aphid (wingless adult and nymph) 1 day prior to chemical application. Each plant was examined before chemical application to ensure proper infestation (ca. 30-70 aphids per plant). Compounds (2 mg) were dissolved in 2 ml of acetone:methanol (1:1) solvent, forming stock solutions of 1000 ppm. The stock solutions were then diluted with a diluent consisting 80 parts of 0.025% Tween 20 in H2O and 20 parts of acetone:methanol (1:1). A hand-held Devilbiss sprayer was used to apply the test solutions until runoff to both sides of the squash cotyledon leaves. Four plants (4 replications) were used for each concentration of each compound. Reference plants (solvent check) were sprayed with the diluent only. Treated plants were held in a holding room for 3 days at approximately 23° C. and 40% RH before the number of live aphids on each plant was recorded. Insecticidal activity was measured by Corrected % Control using Abbott's correction formula and presented in Table 1: Corrected % Control=100*(X−Y)/X • where X=No. of live aphids on solvent check plants • Y=No. of live aphids on treated plants

[2] = tested on: Brown Planthopper (Nilaparvata lugens); experiment: Brown planthopper foliar spray assay on rice
Method: A foliar spray assay and a root-uptake systemic assay were performed on both brown planthopper and green leafhopper. Four-week-old rice seedlings were submerged in 3-cm depth of water in the bottom portion (high 5 cm, diameter 3 cm) of a 2-part glass cylinder (high 18 cm, diameter 3 cm). A metal screen was used to hold the seedlings within the bottom portion. Scotch tape was used to bind the two portions of the cylinder after setting up the seedlings. A metal cap was used to cover the cylinder. There were 4 cylinders for each treatment. The test compound was dissolved in acetone to make a 10,000 ppm stock solution. For the foliar spray assay, this stock solution was diluted with water to make 10, 2.5, 0.31, 0.08 and 0.02 ppm test solutions. A volume of 0.5 ml of a test solution or solvent blank as check was sprayed into the glass cylinder. For systemic test, the stock solution was incorporated at final test concentrations of 10, 2.5, 0.31, 0.08 and 0.02 ppm in the water in which rice seedlings were submerged. In both foliar spray and systemic tests, five laboratory-reared 3rd instar nymphs of brown planthopper or green leafhopper were introduced into each cylinder 3 hr after insecticide application. The treated test units were kept in a growth chamber with conditions set as followings: Temperature 28±0.5° C.; Relative humidity 70±0.5%; Photoperiod […].

[3] = tested on: Sweet Potato Whitefly (Bemisia tabaci); experiment: Sweet potato whitefly foliar spray assay on cotton; conditions: 12 days, live large nymphs
From the text: This test was designed to measure the capability of whitefly eggs and/or young nymphs to develop to large nymphs. Cotton seedlings at the growth stage of one or two expanding true leaf were trimmed so that only the first true leaf remained (cotyledon leaves were also removed). The plants were pre-infested with sweet potato whitefly eggs by keeping plants next to the colony-keeping plants for two days. The infested plants were carefully checked for presence of similar egg density before use in the insecticidal tests. Master solutions of test compounds at 1000 ppm were prepared in acetone:methanol (1:1). The 12.5 ppm spray solutions were then made by diluting 0.188 mL of the master solution with 14.812 ml of 0.025% Tween 20 in water. The lower concentrations were made by diluting the 12.5 ppm spray solution with a diluent consisting 98.75 parts of 0.025% Tween 20 in water and 1.25 parts of acetone:methanol (1:1). The diluent was used as solvent control. The test solutions were sprayed with a hand-held Devilbiss sprayer until runoff to both sides of the infested cotton leaves. Four plants (4 replications) were used for each treatment. Treated plants were held in a holding room for 12 days at approximately 23° C. and 40% RH before evaluation. To evaluate the efficacy of the compounds, the number of live large nymphs in an area of 1 square inch on the lower surface of the treated cotton leaves was counted under a microscope. Insecticidal activity was determined by Corrected % Control using Abbott's correction formula and presented in Table 5: Corrected % Control=100*(X−Y)/X • where X=No. of live large nymphs on solvent check plants • Y=No. of live large nymphs on treated plants

[4] = tested on: Green Peach Aphid (Myzus persicae); experiment: Green peach aphid foliar spray assay on cabbage; conditions: 72 h, read-out: % Control at ppm, foliar spray, green peach aphid on cabbage
Method: Cabbage seedlings grown in 3-inch pots, with 2-3 small (3-5 cm) true leaves, were used as test substrate. The seedlings were infested with 20-50 green peach aphids (wingless adult and nymph) 2-3 days prior to chemical application. Four seedlings were used for each treatment. Compounds (2 mg) were dissolved in 2 ml of acetone:methanol (1:1) solvent, forming stock solutions of 1000 ppm. The stock solutions were then diluted with a diluent consisting 80 parts of 0.025% Tween 20 in […] and 20 parts of acetone:methanol (1:1). A hand-held Devilbiss sprayer was used for spraying the test solutions to both sides of cabbage leaves until runoff. Reference plants (solvent check) were sprayed with the diluent only. Treated plants were held in a holding room for three days at approximately 23° C. and 40% RH prior to grading. Evaluation was conducted by counting the number of live aphids per plant under a microscope. Insecticidal activity was measured by using Abbott's correction formula: Corrected % Control=100*(X−Y)/X • where X=No. of live aphids on solvent check plants • Y=No. of live aphids on treated plants The Corrected % Control values from assays are given in Table 2.

CC(c1ccc(C(F)(F)F)nc1)S(C)(=O)=NC#N (stereo not drawn) [Compound 2, [1-(6-trifluoromethylpyridin-3-yl)ethyl](methyl)-oxido-λ^4-sulfanylidenecyanamide]
pest or weed control at 0.049 ppm [1]: 90 to 100% | pest or weed control at 0.195 ppm [1]: 90 to 100% | pest or weed control at 0.781 ppm [1]: 90 to 100% | pest or weed control at 3.13 ppm [1]: 90 to 100% | % Control at ppm against brown planthopper ([2]; 0.02 ppm): F (Less than 50) | % Control at ppm against brown planthopper ([2]; 0.08 ppm): E (50-59) | % Control at ppm against brown planthopper ([2]; 0.31 ppm): A (90-100) | % Control at ppm against brown planthopper ([2]; 2.5 ppm): A (90-100) | % Control at ppm against brown planthopper ([2]; 10 ppm): A (90-100) | % Control at ppm, foliar spray, sweet potato whitefly on cotton ([3]; 0.781 ppm): 80% | % Control at ppm, foliar spray, sweet potato whitefly on cotton ([3]; 3.125 ppm): 94% | % Control at ppm, foliar spray, sweet potato whitefly on cotton ([3]; 12.500 ppm): 100% | pest or weed control at 0.195 ppm [4]: 80 to 89% | pest or weed control at 0.781 ppm [4]: 90 to 100% | pest or weed control at 3.125 ppm [4]: 90 to 100%

Source: US8193364B2, “Insecticidal N-substituted (6-haloalkylpyridin-3-yl)-alkyl sulfoximines” (Dow AgroSciences, LLC., priority 2006, dated 2012)
